Assay [1] relates to HT-29. Description: Anti-necroptic activity in human HT-29 cells assessed as inhibition of TSZ induced necroptosis at 25 to 50 uM pretreated with compound for 2 hrs followed by TSZ stimulation and measured after 12 hrs. The assay is classed as functional, cell-based. The conditions noted are these: dose 25-50 µM, time 14.0 hrs.
The target of assay [2] is T1, Mixed lineage kinase domain-like protein (Homo sapiens) (UniProt Q8NB16).
T1 sequence (whole entry): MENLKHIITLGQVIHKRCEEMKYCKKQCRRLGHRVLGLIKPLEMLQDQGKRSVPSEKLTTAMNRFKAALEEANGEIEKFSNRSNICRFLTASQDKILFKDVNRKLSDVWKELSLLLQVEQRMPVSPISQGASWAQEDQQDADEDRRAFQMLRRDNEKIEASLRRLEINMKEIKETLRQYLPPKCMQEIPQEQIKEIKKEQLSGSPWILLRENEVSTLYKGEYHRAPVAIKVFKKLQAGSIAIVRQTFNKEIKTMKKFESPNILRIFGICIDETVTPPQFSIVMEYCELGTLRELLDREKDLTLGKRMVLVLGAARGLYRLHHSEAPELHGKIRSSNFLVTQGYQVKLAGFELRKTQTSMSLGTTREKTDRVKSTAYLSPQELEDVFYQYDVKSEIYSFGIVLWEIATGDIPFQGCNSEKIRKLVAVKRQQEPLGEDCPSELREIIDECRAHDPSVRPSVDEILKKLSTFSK
Description: Inhibition of MLKL phosphorylation in TCZ induced human HT-29 cells assessed as decrease in phosphorylated MLKL level at 50 uM pretreated with compound for 2 hrs followed by TSZ-induction and measured after 12 hrs by Western blot analysis relative to control. The assay is classed as cell-based. The conditions noted are these: time 14.0 hrs.

Assay [3] relates to HT-29. Description: Antiproliferative activity against human HT-29 cells assessed as reduction in cell viability measured after 72 hrs by celltiter glo assay. The assay is classed as functional.
For assay [4], the target named is T2, Receptor-interacting serine/threonine-protein kinase 1 (Homo sapiens, UniProt Q13546).
T2 sequence (Q13546 whole entry): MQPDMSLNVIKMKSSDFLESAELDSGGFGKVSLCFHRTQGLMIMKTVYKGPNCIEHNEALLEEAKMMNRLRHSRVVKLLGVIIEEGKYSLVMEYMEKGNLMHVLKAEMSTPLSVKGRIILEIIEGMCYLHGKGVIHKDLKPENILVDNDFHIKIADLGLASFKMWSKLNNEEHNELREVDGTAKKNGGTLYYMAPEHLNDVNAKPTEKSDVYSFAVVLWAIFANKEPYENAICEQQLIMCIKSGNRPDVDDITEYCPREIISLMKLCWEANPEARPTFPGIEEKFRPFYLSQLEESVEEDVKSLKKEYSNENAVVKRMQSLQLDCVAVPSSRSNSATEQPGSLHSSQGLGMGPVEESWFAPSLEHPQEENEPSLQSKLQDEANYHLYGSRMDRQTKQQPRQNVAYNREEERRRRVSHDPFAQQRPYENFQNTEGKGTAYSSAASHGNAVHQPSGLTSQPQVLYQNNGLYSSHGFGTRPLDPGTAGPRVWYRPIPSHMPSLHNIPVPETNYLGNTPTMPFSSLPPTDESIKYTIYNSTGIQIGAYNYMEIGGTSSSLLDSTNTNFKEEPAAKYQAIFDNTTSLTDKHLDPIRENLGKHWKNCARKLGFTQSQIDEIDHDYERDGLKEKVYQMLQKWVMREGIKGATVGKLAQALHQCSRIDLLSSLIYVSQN
Description: Inhibition of human recombinant RIPK1 using MBP as substrate preincubated for 15 mins followed by substrate addition and measured after 120 mins in presence of ATP by ADP-Glo kinase assay.

Assay [5] concerns the target Receptor-interacting serine/threonine-protein kinase 3 (Homo sapiens, UniProt Q9Y572). Description: Inhibition of human recombinant RIPK3 using MBP as substrate preincubated for 15 mins followed by substrate addition and measured after 120 mins in presence of ATP by ADP-Glo kinase assay.
The target of assay [6] is T1, Mixed lineage kinase domain-like protein (Homo sapiens). Description: Inhibition of MLKL phosphorylation in human HT-29 cells preincubated for 2 hrs followed by TCZ treatment and measured after 12 hrs by Western blot analysis. The assay is classed as cell-based. The note with it: dose 10-50 µM, time 14.0 hrs.
The target of assay [7] is T3, Receptor-interacting serine/threonine-protein kinase 1 (Homo sapiens) (UniProt Q13546).
T3 sequence (whole entry): T2 sequence (Q13546 whole entry)
Description: Inhibition of RIPK1 phosphorylation in human HT-29 cells preincubated for 2 hrs followed by TCZ treatment and measured after 12 hrs by Western blot analysis. The conditions noted are these: dose 10-50 µM, time 14.0 hrs. The class given is cell-based.

In assay [8] the test system is Mus musculus. Description: Protection against TNF-alpha induced systemic inflammatory response syndrome (SIRS) in C57BL/6 mouse model assessed as increase in survival rate at 10 to 25 mg/kg, ip preincubated for 15 mins followed by TNF-alpha stimulation measured upto 60 hrs. The class given is functional, organism-based. The note with it: dose 10-25 mg/kg, time <= 3615.0 min.

Assay [9] relates to Mus musculus. Description: Protection against TNF-alpha induced systemic inflammatory response syndrome (SIRS) in C57BL/6 mouse model assessed as body temperature loss administered as ip dose preincubated for 15 mins followed by TNF-alpha stimulation measured upto 15 hrs. The class given is functional, organism-based. The note with it: dose 10-25 mg/kg, time <= 915.0 min.
The test system of assay [10] is Mus musculus. Description: Protection against TNF-alpha induced systemic inflammatory response syndrome (SIRS) in C57BL/6 mouse model assessed as decrease in IL-6 production in serum at 10 to 25 mg/kg, ip preincubated for 15 mins followed by TNF-alpha stimulation measured after 4 hrs by ELISA method. The class given is functional, organism-based. The note with it: dose 10-25 mg/kg, time 255.0 min.

Assay [11] has as its system U-937. Description: Anti-necroptic activity in human U-937 cells assessed as inhibition of TSZ induced necroptosis at 25 to 50 uM pretreated with compound for 2 hrs followed by TSZ stimulation and measured after 6 hrs. The note with it: dose 25-50 µM, time 8.0 hrs. The assay is classed as functional, cell-based.
Assay [12] concerns HT-29. Description: Anti-necroptic activity in TSZ induced human HT-29 cells assessed as decrease in PI positive cells to Hoechst positive cells ratio at 25 to 50 uM pretreated with compound for 2 hrs followed by TSZ stimulation and measured after 12 hrs by microscopy based analysis. The assay is classed as functional, cell-based. The note with it: dose 25-50 µM, time 14.0 hrs.

In assay [13] the test system is U-937. Description: Anti-necroptic activity in TSZ induced human U-937 cells assessed as decrease in PI positive cells to Hoechst positive cells ratio at 25 to 50 uM pretreated with compound for 2 hrs followed by TSZ stimulation and measured after 6 hrs by microscopy based analysis. The assay is classed as functional, cell-based. The conditions noted are these: dose 25-50 µM, time 8.0 hrs.

The test system of assay [14] is HT-29. Description: Anti-necroptic activity in human HT-29 cells assessed as rescue of TSZ induced necroptosis at upto 50 uM measured after 72 hrs by cell titer-glo assay. The assay is classed as functional, cell-based.
Assay [15] relates to U-937. Description: Anti-necroptic activity in human U-937 cells assessed as rescue of TSZ induced necroptosis at upto 50 uM measured after 72 hrs by cell titer-glo assay. The assay is classed as functional, cell-based.
The subject of assay [16] is HT-29. Description: Anti-necroptic activity in human HT-29 cells assessed as decrease in TCZ induced ROS level pretreated with compound for 2 hrs followed by TSZ stimulation and measured after 12 hrs by DCFH-DA staining based assay. The assay is classed as functional, cell-based. The note with it: time 14.0 hrs.
Assay [17] has as its system HT-29. Description: Anti-necroptic activity in human HT-29 cells assessed as reduction in TSZ induced HMGB1 secretion at 25 uM pretreated with compound for 2 hrs followed by TSZ stimulation and measured after 12 hrs. The assay is classed as functional, cell-based. The note with it: time 14.0 hrs.
Assay [18] concerns the target T1, Mixed lineage kinase domain-like protein (Homo sapiens). Description: Inhibition of MLKL phosphorylation in TSZ-induced human HT-29 cells assessed as decrease in MLKL oligomerization preincubated for 2 hrs followed by TCZ treatment and measured after 12 hrs. The assay is classed as cell-based. The conditions noted are these: dose 25-50 µM, time 14.0 hrs.
The subject of assay [19] is ASPC1. Description: Downregulation of CXCL5 expression in TCZ induced human ASPC1 cells at 25 to 50 uM under conditioned media by ELISA method. The class given is functional, cell-based. The note with it: dose 25-50 µM.
Assay [20] has as its system ASPC1. Description: Anti-migration activity in TCZ induced human ASPC1 cells assessed as suppression of cell migration preincubated with compound for 15 mins followed by TCZ stimulation and measured after 4 hrs under conditioned media by crystal violet staining based transwell migration assay. The assay is classed as functional. The note with it: dose 25-50 µM, time 255.0 min.

The test system of assay [21] is ASPC1. Description: Anti-invasive activity in TCZ induced human ASPC1 cells assessed as suppression of cell invasion preincubated with compound for 15 mins followed by TCZ stimulation and measured after 4 hrs under conditioned media. The assay is classed as functional, cell-based. The conditions noted are these: dose 25-50 µM, time 255.0 min.
For assay [22], the system named is ASPC1. Description: Anti-migration activity in human ASPC1 cells assessed as suppression of cell migration at 25 to 50 uM incubated for 15 mins by crystal violet staining based transwell migration assay. The assay is classed as functional. The note with it: dose 25-50 µM.
Assay [23] relates to ASPC1. Description: Anti-invasive activity in human ASPC1 cells assessed as suppression of cell invasion at 25 to 50 uM incubated for 15 mins. The class given is functional, cell-based. The note with it: dose 25-50 µM.
A short description of assay [24]: Inhibition of RIPK1-RIPK3 (unknown origin) incubated for 4 hrs by ADP-glo luminescence assay.

Activity calls are given as the source filed them. The rule behind the calls is not given here.

Sequence of Receptor-interacting serine/threonine-protein kinase 3 (Q9Y572 whole entry, the tested form may be a part): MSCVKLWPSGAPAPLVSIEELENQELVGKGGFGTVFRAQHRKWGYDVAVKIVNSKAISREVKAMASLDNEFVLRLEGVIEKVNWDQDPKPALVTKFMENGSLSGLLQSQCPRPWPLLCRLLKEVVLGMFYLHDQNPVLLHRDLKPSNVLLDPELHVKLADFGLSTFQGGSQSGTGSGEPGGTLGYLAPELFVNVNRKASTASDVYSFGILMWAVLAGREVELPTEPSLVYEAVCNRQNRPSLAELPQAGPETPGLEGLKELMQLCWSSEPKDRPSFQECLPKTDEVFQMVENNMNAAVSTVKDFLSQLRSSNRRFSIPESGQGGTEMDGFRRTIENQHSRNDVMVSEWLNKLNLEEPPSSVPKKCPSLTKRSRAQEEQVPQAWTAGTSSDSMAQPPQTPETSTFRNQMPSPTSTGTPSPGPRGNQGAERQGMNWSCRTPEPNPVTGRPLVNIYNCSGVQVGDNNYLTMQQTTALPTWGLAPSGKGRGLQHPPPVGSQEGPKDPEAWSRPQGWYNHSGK

For `C=Cc1cc2c(Nc3ccc4scnc4c3)ncnc2cn1`, the outcome in assay [1], in [8], in [10], in assay [11], in assay [12] and in assay [13] was Active. For the same molecule, the outcome in [14], in [15], in assay [17] and in assay [19] was Active. For the same molecule, the inhibition was 86.3% in [2], “Dose-Dependent Effect” in assay [6], “Dose-Dependent Effect” in assay [7] and “Dose-Dependent Effect” in assay [18]. Further, the CC50 in assay [3] is > 50 µM. Also, the IC50 in assay [4] was found to be 8.21 µM; in [5], 0.014 µM. In addition, the Activity entry in [9], in assay [16], in assay [20] and in assay [21] was “Dose-Dependent Effect” in each case. The result in assay [22] and in [23] was inactive.

With `Cc1ccc(C(=O)Nc2ccc(CN3CCN(C)CC3)c(C(F)(F)F)c2)cc1C#Cc1cnc2cccnn12` [PONATINIB], in [24], the IC50 was found to be 0.012 µM.
